These results are taken from patent publication US20110135671A1, “PURINE DERIVATIVES FOR USE IN THE TREATMENT OF ALLERGIC, INFLAMMATORY AND INFECTIOUS DISEASES” (GLAXOSMITHKLINE LLC, priority 2008, published 2011).

The assay has as its system Interferon-α. Description: Induction of Interferon-α using cryopreserved human PBMCs. It is filed as cell-based. The following applies: PBMC, 24 h, normalised to 1 uM resiquimod, read-out: mean pEC50 for induction of Interferon-α (converted). Here is the method:
Assay for the Induction of Interferon-α using Cryopreserved Human Peripheral Blood Mononuclear Cells (PBMCs)
Compounds were dissolved in DMSO. Serial 2-fold dilutions with DMSO were prepared and 0.25 μl dispensed into 384-well clear Greiner polypropylene plates.
Blood samples of up to 200 ml were obtained from healthy human donors. Whole blood in 25 ml volumes was overlaid onto 15 ml Ficoll gradients in Leucosep tubes, and centrifuged at 1000 g for 20 min. Cells in the band at the plasma/histopaque interface were carefully removed and washed twice with PBS (centrifuged at 400 g for 5 min to harvest). The final pellet was resuspended in freezing medium (90% Heat-inactivated serum, 10% DMSO) to a cell concentration of 4×10^7 cells/ml. The resuspended cells were then cryopreserved (frozen) using a rate controlled freezer, and stored at −140° C. for up to 4 months.
Incubation and Assay for Interferon-α
Immediately prior to assay, vials of cryopreserved (frozen) PBMCs were thawed rapidly in a water bath at 37° C. A 1:10 dilution of the cells in trypan blue was prepared and counted. The PBMCs were then diluted in growth media [RPMI 1640 containing 10% fetal calf serum (invitrogen), Penicillin+Streptavidin (Gibco cat. # 25030-024, 1:50), L-Glutamine 2 mM, and 1000 units/ml recombinant human IFN-gamma (Preprotech catalogue #300-02)] to a density of 1×10^6 cells/ml, and 50 ul/well dispensed to 384-well clear Greiner polypropylene plates containing 0.25 μl DMSO or test compound in 0.25 μl DMSO. […] Plates were incubated for 24 h at 37° C. in 5% CO2.
A multi-isoform immunoassay was used to quantify IFN-α in PBMC supernatants. Rabbit polyclonal antibody against human IFN-α (catalogue number 31101, Stratech Scientific) was diluted 1:10000 in assay buffer (RPMI 1640 containing 10% fetal calf serum, Invitrogen) and 20 μl was added to each well of an MSD (Meso-Scale Discovery) single small-spot 384-well GAR (goat anti-rabbit antibody coated) plate. The plate was incubated for 1 h at room temperature with vigorous shaking. Following three washes with PBS, 20 μl of cell supernatant were added to each well of the plate. The plate was then incubated for 1 h at room temperature with vigorous shaking. A pair of monoclonal antibodies to IFN-α (catalogue numbers 21100 and 21112, Stratech Scientific) were labelled with sulfo-TAG (MSD), diluted 1:1000 in assay buffer and 20 μl added to each well of the plate. The plate was further incubated for 1 h at room temperature with vigorous shaking. Following three washes with PBS, 30 μl of ×2 T buffer (MSD) was added to each well and the plate was read on an MSD Sector 6000 plate reader.
Data were normalised to internal plate controls of 1 uM resiquimod (n=16) and DMSO (n=16). pEC50 values were derived by 4-parameter curve fit with IRLS in ActivityBase, from 11-point, two-fold serial dilution of test compounds.
For `CCCCNc1nc(N)c2[nH]c(=O)n(CCCN3CCN(CC4CC4)CC3)c2n1` [Example 23, 6-Amino-2-(butylamino)-9-{3-[4-(cyclopropylmethyl)-1-piperazinyl]propyl}-7,9-dihydro-8H-purin-8-one], the EC50 is below 3.16 µM. As for `CCCCOc1nc(N)c2[nH]c(=O)n(CCCCN3CCN(CCC)CC3)c2n1` [Example 28, 6-Amino-2-(butyloxy)-9-[4-(4-propyl-1-piperazinyl)butyl]-7,9-dihydro-8H-purin-8-one], the EC50 was below 3.16 µM. Regarding `CCCCOc1nc(N)c2[nH]c(=O)n(CCCCCN3CCN(CC4CCCC4)CC3)c2n1` [Example 66, 6-Amino-2-(butyloxy)-9-{5-[4-(cyclopentylmethyl)-1-piperazinyl]pentyl}-7,9-dihydro-8H-purin-8-one], the EC50 was below 3.16 µM. For `CCCCOc1nc(N)c2[nH]c(=O)n(CCCCCCN3CCN(CC)CC3)c2n1` [Example 56, 6-Amino-2-(butyloxy)-9-[6-(4-ethyl-1-piperazinyl)hexyl]-7,9-dihydro-8H-purin-8-one], the EC50 is below 3.16 µM. Take `CCCCOc1nc(N)c2[nH]c(=O)n(CCCCN3CCN(C4CCCC4)CC3)c2n1` [Example 34, 6-Amino-2-(butyloxy)-9-[4-(4-cyclopentyl-1-piperazinyl)butyl]-7,9-dihydro-8H-purin-8-one]: the EC50 was below 3.16 µM. For the compound `CCCCNc1nc(N)c2[nH]c(=O)n(CCN3CCN(C4CCCCC4)CC3)c2n1` [Example 5, 6-Amino-2-(butylamino)-9-[2-(4-cyclohexyl-1-piperazinyl)ethyl]-7,9-dihydro-8H-purin-8-one], the EC50 was below 3.16 µM. For `CCCCOc1nc(N)c2[nH]c(=O)n(CCCCCN3CCN(C(C)(C)C)CC3)c2n1` [Example 61, 6-Amino-2-(butyloxy)-9-{5-[4-(1,1-dimethylethyl)-1-piperazinyl]pentyl}-7,9-dihydro-8H-purin-8-one], the EC50 is below 3.16 µM. As for `CCCCOc1nc(N)c2[nH]c(=O)n(CCCCN3CCNCC3)c2n1` [Example 67, 6-Amino-2-(butyloxy)-9-[4-(1-piperazinyl)butyl]-7,9-dihydro-8H-purin-8-one], the EC50 is below 3.16 µM. For the compound `CC[C@H](C)Oc1nc(N)c2[nH]c(=O)n(CCCCN3CCN(C(C)C)CC3)c2n1` [Example 68, 6-Amino-9-{4-[4-(1-methylethyl)-1-piperazinyl]butyl}-2-{[(1S)-1-methylpropyl]oxy}-7,9-dihydro-8H-purin-8-one], the EC50 was below 3.16 µM. `CCCCOc1nc(N)c2[nH]c(=O)n(CCCN3CCN(C(C)(C)C)CC3)c2n1` [Example 12, 6-Amino-2-(butyloxy)-9-{3-[4-(1,1-dimethylethyl)-1-piperazinyl]propyl}-7,9-dihydro-8H-purin-8-one]: the EC50 was below 3.16 µM. Take `CCCC[C@H](C)Oc1nc(N)c2[nH]c(=O)n(CCCCN3CCN(C(C)C)CC3)c2n1` [Example 69, 6-Amino-9-{4-[4-(1-methylethyl)-1-piperazinyl]butyl}-2-{[(1S)-1-methylpentyl]oxy}-7,9-dihydro-8H-purin-8-one]: the EC50 was below 3.16 µM. Turning to `CCCCNc1nc(N)c2[nH]c(=O)n(CCCCN3CCN(C(C)C)CC3)c2n1` [Example 38, 6-Amino-2-(butylamino)-9-{4-[4-(1-methylethyl)-1-piperazinyl]butyl}-7,9-dihydro-8H-purin-8-one], the EC50 was below 3.16 µM.

For the compound `CCCCNc1nc(N)c2[nH]c(=O)n(CCCCN3CCN(CC)CC3)c2n1` [Example 36, 6-Amino-2-(butylamino)-9-[4-(4-ethyl-1-piperazinyl)butyl]-7,9-dihydro-8H-purin-8-one], the EC50 was below 3.16 µM. With `CCCCNc1nc(N)c2[nH]c(=O)n(CCCN3CCN(CCC)CC3)c2n1` [Example 18, 6-Amino-2-(butylamino)-9-[3-(4-propyl-1-piperazinyl)propyl]-7,9-dihydro-8H-purin-8-one], the EC50 is below 3.16 µM. As for `CCC[C@H](C)Oc1nc(N)c2[nH]c(=O)n(CCCCCN3CCN(C)CC3)c2n1` [Example 50, 6-Amino-2-{[(1S)-1-methylbutyl]oxy}-9-[5-(4-methyl-1-piperazinyl)pentyl]-7,9-dihydro-8H-purin-8-one], the figure is below 3.16 µM; as for `CCCCNc1nc(N)c2[nH]c(=O)n(CCCCN3CCN(CCCC)CC3)c2n1` [Example 39, 6-Amino-2-(butylamino)-9-[4-(4-butyl-1-piperazinyl)butyl]-7,9-dihydro-8H-purin-8-one], below 3.16 µM. Consider `CCCCOc1nc(N)c2[nH]c(=O)n(CCCCCN3CCN(CC4CC4)CC3)c2n1` [Example 65, 6-Amino-2-(butyloxy)-9-{5-[4-(cyclopropylmethyl)-1-piperazinyl]pentyl}-7,9-dihydro-8H-purin-8-one], for which the EC50 was below 3.16 µM.

For `CCC[C@H](C)Oc1nc(N)c2[nH]c(=O)n(CCCCCN3CCN(CC)CC3)c2n1` [Example 51, 6-Amino-9-[5-(4-ethyl-1-piperazinyl)pentyl]-2-{[(1S)-1-methylbutyl]oxy}-7,9-dihydro-8H-purin-8-one], the EC50 is below 3.16 µM. For `CCCCOc1nc(N)c2[nH]c(=O)n(CCCCCN3CCNCC3)c2n1` [Example 45, 6-Amino-2-(butyloxy)-9-[5-(1-piperazinyl)pentyl]-7,9-dihydro-8H-purin-8-one] the value was below 3.16 µM; for `CCCCNc1nc(N)c2[nH]c(=O)n(CCCCN3CCN(C4CCCCC4)CC3)c2n1` [Example 44, 6-Amino-2-(butylamino)-9-[4-(4-cyclohexyl-1-piperazinyl)butyl]-7,9-dihydro-8H-purin-8-one], below 3.16 µM; for `CCCCOc1nc(N)c2[nH]c(=O)n(CCCCN3CCN(C4CCCCC4)CC3)c2n1` [Example 35, 6-Amino-2-(butyloxy)-9-[4-(4-cyclohexyl-1-piperazinyl)butyl]-7,9-dihydro-8H-purin-8-one], below 3.16 µM. Turning to `CCC[C@H](C)Oc1nc(N)c2[nH]c(=O)n(CCCCCN3CCN(C(C)(C)C)CC3)c2n1` [Example 53, 6-Amino-9-{5-[4-(1,1-dimethylethyl)-1-piperazinyl]pentyl}-2-{[(1S)-1-methylbutyl]oxy}-7,9-dihydro-8H-purin-8-one], the EC50 was below 3.16 µM. Regarding `CCC[C@H](C)Oc1nc(N)c2[nH]c(=O)n(CCCCCN3CCNCC3)c2n1` [Example 49, 6-Amino-2-{[(1S)-1-methylbutyl]oxy}-9-[5-(1-piperazinyl)pentyl]-7,9-dihydro-8H-purin-8-one], the EC50 is below 3.16 µM.

Turning to `CCCCNc1nc(N)c2[nH]c(=O)n(CCCN3CCN(CC)CC3)c2n1` [Example 17, 6-Amino-2-(butylamino)-9-[3-(4-ethyl-1-piperazinyl)propyl]-7,9-dihydro-8H-purin-8-one], the EC50 was below 3.16 µM. `CCCCOc1nc(N)c2[nH]c(=O)n(CCCCN3CCN(CCCC)CC3)c2n1` [Example 30, 6-Amino-2-(butyloxy)-9-[4-(4-butyl-1-piperazinyl)butyl]-7,9-dihydro-8H-purin-8-one]: the EC50 was below 3.16 µM.

For `CCCCNc1nc(N)c2[nH]c(=O)n(CCCN3CCN(C(C)(C)C)CC3)c2n1` [Example 22, 6-Amino-2-(butylamino)-9-{3-[4-(1,1-dimethylethyl)-1-piperazinyl]propyl}-7,9-dihydro-8H-purin-8-one], the EC50 was below 3.16 µM. For `CCCCNc1nc(N)c2[nH]c(=O)n(CCCCN3CCN(CC4CC4)CC3)c2n1` [Example 42, 6-Amino-2-(butylamino)-9-{4-[4-(cyclopropylmethyl)-1-piperazinyl]butyl}-7,9-dihydro-8H-purin-8-one], the EC50 is below 3.16 µM. For `CCCCOc1nc(N)c2[nH]c(=O)n(CCCN3CCN(CCC)CC3)c2n1` [Example 8, 6-Amino-2-(butyloxy)-9-[3-(4-propyl-1-piperazinyl)propyl]-7,9-dihydro-8H-purin-8-one] the value was below 3.16 µM.

In the case of `CCCCOc1nc(N)c2[nH]c(=O)n(CCCN3CCN(CC)CC3)c2n1` [Example 7, 6-Amino-2-(butyloxy)-9-[3-(4-ethyl-1-piperazinyl)propyl]-7,9-dihydro-8H-purin-8-one], the EC50 was below 3.16 µM.

Regarding `CCCCNc1nc(N)c2[nH]c(=O)n(CCCCN3CCN(C4CCCC4)CC3)c2n1` [Example 43, 6-Amino-2-(butylamino)-9-[4-(4-cyclopentyl-1-piperazinyl)butyl]-7,9-dihydro-8H-purin-8-one], the EC50 was below 3.16 µM.
